According to patent US20260345621A1, “GABAA RECEPTOR MODULATORS AND USES THEREOF” (Engrail Therapeutics, Inc., priority 2022, published 2026):
“Also recorded” adds a separate entry of the source. Like-named read-outs stand apart in the source and are kept apart here.

Test: Multiple ascending dose study, plasma pharmacokinetics
Assay type: in vivo, human (healthy volunteers)
Details: for AUC(0-t) at 24 h / Cmax at 24 h / AUC tau / Cmax at 288 h / half-life: human, plasma, po
Method: A clinical study was developed to evaluate safety, tolerability, pharmacokinetics, and pharmacodynamics of Compound 1 at plasma steady-state in 40 healthy human volunteers. Compound 1 (provided as Compound 1 phosphate) was administered to participants as multiple ascending doses of 0.5 mg (N=6), 1.0 mg (N=6), 1.5 mg (N=6), 2.0 mg (N=6), or 5.0 mg (N=6) once daily (QD) for 12 days.
Blood samples were collected, and plasma concentrations were measured using a validated high performance liquid chromatography/liquid chromatography-mass spectrometry/mass spectrometry method. The PK parameters assessed included Cmax, Tmax, AUC from administration to the end of dosing (AUC0-t), AUC0-24, AUC0-inf, t1/2, terminal rate constant (λz), apparent total clearance of the drug from plasma (CL/F), and apparent volume of distribution during terminal phase after non-intravenous administration (Vz/F).
The plasma concentration data for Compound 1 were summarized by dose level and the planned sampling time points using descriptive statistics (n, SD, median, minimum, maximum, geometric mean, and coefficient of variance (CV %) for the geometric mean) for the PK Analysis Set.
Specifically, samples for PK analyses were taken on Day 1 and Day 12 pre-dose, 0.5, 1, 1.5, 3, 6, 8, 10, and 12 h post-dose, with additional samples taken on every dosing Day (24 hours after the previous day's dose) and 24, 72, 168, and 336 h after last dosing on Day 12. All individual Compound 1 concentrations were above the LLOQ of 0.0500 ng/mL at 0.5 h post-dose, except for 1 participant, for whom the concentration was above the LLOQ at 1 h post-dose.

[1] = 0.5 mg oral QD, Day 1, 1440 min
[2] = 1.0 mg oral QD, Day 1, 1440 min
[3] = 1.5 mg oral QD, Day 1, 1440 min
[4] = 2.0 mg oral QD, Day 1, 1440 min

CC(C)(O)c1cnn2c(-c3ccc(F)c(-c4c(F)cccc4C#N)c3)cnc2n1 [Compound 1, 2′,6-difluoro-5′-(3-(2-hydroxypropan-2-yl)imidazo[1,2-b][1,2,4]triazin-7-yl)-[1,1′-biphenyl]-2-carbonitrile]
AUC0-24 (mean) [1]: 52.56 ng·h/mL
Cmax (mean) [1]: 4.615 ng/mL
AUCtau (mean) (0.5 mg oral QD, Day 12): 197.54 ng·h/mL
t1/2 (mean) (0.5 mg oral QD, Day 12): 65.610 h
Cmax (mean) (0.5 mg oral QD, Day 12, 17280 min): 11.660 ng/mL
AUC0-24 (mean) [2]: 117.81 ng·h/mL
Cmax (mean) [2]: 8.497 ng/mL
AUCtau (mean) (1.0 mg oral QD, Day 12): 410.07 ng·h/mL
t1/2 (mean) (1.0 mg oral QD, Day 12): 60.876 h
Cmax (mean) (1.0 mg oral QD, Day 12, 17280 min): 23.333 ng/mL
AUC0-24 (mean) [3]: 216.99 ng·h/mL
Cmax (mean) [3]: 18.833 ng/mL
AUCtau (mean) (1.5 mg oral QD, Day 12): 705.65 ng·h/mL
t1/2 (mean) (1.5 mg oral QD, Day 12): 50.526 h
AUC0-24 (mean) [4]: 243.73 ng·h/mL
Cmax (mean) [4]: 19.633 ng/mL
AUCtau (mean) (2.0 mg oral QD, Day 12): 873.17 ng·h/mL
t1/2 (mean) (2.0 mg oral QD, Day 12): 61.167 h
Cmax (mean) (2.0 mg oral QD, Day 12, 17280 min): 49.817 ng/mL
AUC0-24 (mean) (5.0 mg oral QD, Day 1, 1440 min): 641.92 ng·h/mL
t1/2 (mean) (5.0 mg oral QD, Day 12): 38.695 h
trend of t1/2 or λz with increasing dose (0.5-5.0 mg oral QD): no trend towards change in t1/2 or λz with increasing dose
dose proportionality of exposure (Cmax and AUC, 0.5-5.0 mg oral QD): generally increased dose- and concentration-proportionally; also recorded: Dose-proportional PK were confirmed over the investigated dose range
median time of the last quantifiable concentration (all cohorts, Day 1): approximately 24 h
linearity of dose normalized Cmax and AUC0-24 (arguable exception 1.5 mg): consistent with linear kinetics
AUC(0-t) at 24 h (0.5 mg, 0.5 mg oral QD, Day 1, read-out: AUC0-24 (mean)): 53 ± 7 ng·h/mL
AUC(0-t) at 24 h (0.5 mg, 0.5 mg oral QD, Day 1, read-out: AUC0-24 (median)): 54.8 ng·h/mL
Cmax at 24 h (0.5 mg, 0.5 mg oral QD, Day 1, read-out: Cmax (mean)): 4.6 ± 2 ng/mL
Cmax at 24 h (0.5 mg, 0.5 mg oral QD, Day 1, read-out: Cmax (median)): 4.58 ng/mL
AUC tau (0.5 mg, 0.5 mg oral QD, Day 12, read-out: AUCtau (mean)): 198 ± 51 ng·h/mL
AUC tau (0.5 mg, 0.5 mg oral QD, Day 12, read-out: AUCtau (median)): 201 ng·h/mL
Cmax at 288 h (0.5 mg, 0.5 mg oral QD, Day 12, read-out: Cmax (mean)): 11.7 ± 4 ng/mL
Cmax at 288 h (0.5 mg, 0.5 mg oral QD, Day 12, read-out: Cmax (median)): 11.6 ng/mL
half-life (0.5 mg, 0.5 mg oral QD, Day 12, read-out: t1/2 (mean) (converted)): 2.75 ± 1 days
half-life (0.5 mg, 0.5 mg oral QD, Day 12, read-out: t1/2 (median) (converted)): 2.68 days
AUC(0-t) at 24 h (1 mg, 1.0 mg oral QD, Day 1, read-out: AUC0-24 (mean)): 118 ± 27 ng·h/mL
AUC(0-t) at 24 h (1 mg, 1.0 mg oral QD, Day 1, read-out: AUC0-24 (median)): 117 ng·h/mL
Cmax at 24 h (1 mg, 1.0 mg oral QD, Day 1, read-out: Cmax (mean)): 8.5 ± 3 ng/mL
Cmax at 24 h (1 mg, 1.0 mg oral QD, Day 1, read-out: Cmax (median)): 8.99 ng/mL
AUC tau (1 mg, 1.0 mg oral QD, Day 12, read-out: AUCtau (mean)): 410 ± 115 ng·h/mL
AUC tau (1 mg, 1.0 mg oral QD, Day 12, read-out: AUCtau (median)): 416 ng·h/mL
Cmax at 288 h (1 mg, 1.0 mg oral QD, Day 12, read-out: Cmax (mean)): 23.3 ± 5 ng/mL
Cmax at 288 h (1 mg, 1.0 mg oral QD, Day 12, read-out: Cmax (median)): 22.6 ng/mL
half-life (1 mg, 1.0 mg oral QD, Day 12, read-out: t1/2 (mean) (converted)): 2.54 ± 1.21 days
half-life (1 mg, 1.0 mg oral QD, Day 12, read-out: t1/2 (median) (converted)): 2.42 days
AUC(0-t) at 24 h (1.5 mg, 1.5 mg oral QD, Day 1, read-out: AUC0-24 (mean)): 217 ± 48 ng·h/mL
AUC(0-t) at 24 h (1.5 mg, 1.5 mg oral QD, Day 1, read-out: AUC0-24 (median)): 227 ng·h/mL
Cmax at 24 h (1.5 mg, 1.5 mg oral QD, Day 1, read-out: Cmax (mean)): 18.8 ± 7 ng/mL
Cmax at 24 h (1.5 mg, 1.5 mg oral QD, Day 1, read-out: Cmax (median)): 18.2 ng/mL
